# Data published in PubChem BioAssay (NCI).
#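 How tested: cells in 96-well plates exposed to compound for 48 hours at five concentrations. GI50 is the concentration that inhibits growth by half. TGI marks complete inhibition of growth.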
# Assays:
# Assay in all cases: NCI tumour cell line growth inhibition, 48 h
# MCF7 breast = test system: MCF7 breast
# MALME-3M melanoma = test system: MALME-3M melanoma
# UACC-62 melanoma = test system: UACC-62 melanoma
# MDA-MB-435 = test system: MDA-MB-435
# M14 melanoma = test system: M14 melanoma
# PC-3 prostate = test system: PC-3 prostate
# SF-295 CNS = test system: SF-295 CNS
# SR leukemia = test system: SR leukemia
# HL-60(TB) leukemia = test system: HL-60(TB) leukemia
# COLO 205 colon = test system: COLO 205 colon
# SN12C renal = test system: SN12C renal
# NCI-H460 lung = test system: NCI-H460 lung
# HS 578T breast = test system: HS 578T breast
# U251 CNS = test system: U251 CNS
# NCI-H226 lung = test system: NCI-H226 lung
# UO-31 renal = test system: UO-31 renal
# SF-268 CNS = test system: SF-268 CNS
# OVCAR-8 ovarian = test system: OVCAR-8 ovarian
# SNB-75 CNS = test system: SNB-75 CNS
# DU-145 prostate = test system: DU-145 prostate
# KM12 colon = test system: KM12 colon
# UACC-257 melanoma = test system: UACC-257 melanoma
# SF-539 CNS = test system: SF-539 CNS
# SK-MEL-5 melanoma = test system: SK-MEL-5 melanoma
# IGROV1 ovarian = test system: IGROV1 ovarian
# A549 NSCLC = test system: A549 NSCLC
# HCT-15 colon = test system: HCT-15 colon
# HCC-2998 colon = test system: HCC-2998 colon
# OVCAR-5 ovarian = test system: OVCAR-5 ovarian
# RPMI-8226 leukemia = test system: RPMI-8226 leukemia
# HT29 colon = test system: HT29 colon
# SK-MEL-28 melanoma = test system: SK-MEL-28 melanoma
# SW-620 colon = test system: SW-620 colon
# SNB-19 CNS = test system: SNB-19 CNS
# HOP-92 NSCLC = test system: HOP-92 NSCLC
# A498 renal = test system: A498 renal
# NCI-H522 lung = test system: NCI-H522 lung
# EKVX NSCLC = test system: EKVX NSCLC
# OVCAR-4 ovarian = test system: OVCAR-4 ovarian
# TK-10 renal = test system: TK-10 renal
# CCRF-CEM leukemia = test system: CCRF-CEM leukemia
# RXF 393 renal = test system: RXF 393 renal
# ACHN renal = test system: ACHN renal
# T-47D breast = test system: T-47D breast
# K-562 leukemia = test system: K-562 leukemia
# 786-0 renal = test system: 786-0 renal
# MOLT-4 leukemia = test system: MOLT-4 leukemia
# SK-OV-3 ovarian = test system: SK-OV-3 ovarian
# HOP-62 NSCLC = test system: HOP-62 NSCLC
# SK-MEL-2 melanoma = test system: SK-MEL-2 melanoma
# NCI-H23 lung = test system: NCI-H23 lung
# HCT-116 colon = test system: HCT-116 colon
# OVCAR-3 ovarian = test system: OVCAR-3 ovarian
# CAKI-1 renal = test system: CAKI-1 renal
# NCI/ADR-RES ovarian = test system: NCI/ADR-RES ovarian
# LOX IMVI melanoma = test system: LOX IMVI melanoma
smiles,measurement,setting,value
COC(=O)[C@]12CC[C@@H](C)[C@H](C)[C@@H]1C1=CC[C@@H]3[C@@]4(C)C(C=O)=C[C@@](C)(COS(C)(=O)=O)C4[C@H](O)C[C@@]3(C)[C@]1(C)CC2 (some centres not stated),GI50,MCF7 breast,1190 nM
same,TGI,MCF7 breast,3630 nM
same,GI50,MALME-3M melanoma,1650 nM
same,TGI,MALME-3M melanoma,3390 nM
same,GI50,UACC-62 melanoma,1660 nM
same,TGI,UACC-62 melanoma,3960 nM
same,GI50,MDA-MB-435,1670 nM
same,TGI,MDA-MB-435,3570 nM
same,GI50,M14 melanoma,1680 nM
same,TGI,M14 melanoma,4500 nM
same,GI50,PC-3 prostate,1390 nM
same,TGI,PC-3 prostate,6480 nM
same,GI50,SF-295 CNS,1310 nM
same,TGI,SF-295 CNS,2770 nM
same,GI50,SR leukemia,299 nM
same,TGI,SR leukemia,1380 nM
same,GI50,HL-60(TB) leukemia,1170 nM
same,TGI,HL-60(TB) leukemia,4240 nM
same,GI50,COLO 205 colon,1850 nM
same,TGI,COLO 205 colon,3930 nM
same,GI50,SN12C renal,2280 nM
same,TGI,SN12C renal,6390 nM
same,GI50,NCI-H460 lung,2150 nM
same,TGI,NCI-H460 lung,4930 nM
same,GI50,HS 578T breast,3120 nM
same,TGI,HS 578T breast,8770 nM
same,GI50,U251 CNS,1650 nM
same,TGI,U251 CNS,3170 nM
same,GI50,NCI-H226 lung,2880 nM
same,TGI,NCI-H226 lung,7310 nM
same,GI50,UO-31 renal,1040 nM
same,TGI,UO-31 renal,2350 nM
same,GI50,SF-268 CNS,2000 nM
same,TGI,SF-268 CNS,4820 nM
same,GI50,OVCAR-8 ovarian,2080 nM
same,TGI,OVCAR-8 ovarian,5710 nM
same,GI50,SNB-75 CNS,1510 nM
same,TGI,SNB-75 CNS,8860 nM
same,GI50,DU-145 prostate,1690 nM
same,TGI,DU-145 prostate,3410 nM
same,GI50,KM12 colon,1830 nM
same,TGI,KM12 colon,3960 nM
same,GI50,UACC-257 melanoma,1850 nM
same,TGI,UACC-257 melanoma,3650 nM
same,GI50,SF-539 CNS,1830 nM
same,TGI,SF-539 CNS,3710 nM
same,GI50,SK-MEL-5 melanoma,1700 nM
same,TGI,SK-MEL-5 melanoma,3260 nM
same,GI50,IGROV1 ovarian,2580 nM
same,TGI,IGROV1 ovarian,7360 nM
same,GI50,A549 NSCLC,2640 nM
same,TGI,A549 NSCLC,11000 nM
same,GI50,HCT-15 colon,1340 nM
same,TGI,HCT-15 colon,2870 nM
same,GI50,HCC-2998 colon,1690 nM
same,TGI,HCC-2998 colon,3120 nM
same,GI50,OVCAR-5 ovarian,1960 nM
same,TGI,OVCAR-5 ovarian,6500 nM
same,GI50,RPMI-8226 leukemia,342 nM
same,TGI,RPMI-8226 leukemia,1990 nM
same,GI50,HT29 colon,1640 nM
same,TGI,HT29 colon,3500 nM
same,GI50,SK-MEL-28 melanoma,2150 nM
same,TGI,SK-MEL-28 melanoma,5050 nM
same,GI50,SW-620 colon,2360 nM
same,TGI,SW-620 colon,5700 nM
same,GI50,SNB-19 CNS,2470 nM
same,TGI,SNB-19 CNS,8440 nM
same,GI50,HOP-92 NSCLC,2390 nM
same,TGI,HOP-92 NSCLC,5560 nM
same,GI50,A498 renal,3740 nM
same,TGI,A498 renal,16000 nM
same,GI50,NCI-H522 lung,1210 nM
same,TGI,NCI-H522 lung,2910 nM
same,GI50,EKVX NSCLC,2140 nM
same,TGI,EKVX NSCLC,6280 nM
same,GI50,OVCAR-4 ovarian,1840 nM
same,TGI,OVCAR-4 ovarian,6060 nM
same,GI50,TK-10 renal,2000 nM
same,TGI,TK-10 renal,4910 nM
same,GI50,CCRF-CEM leukemia,782 nM
same,TGI,CCRF-CEM leukemia,3220 nM
same,GI50,RXF 393 renal,1530 nM
same,TGI,RXF 393 renal,2900 nM
same,GI50,ACHN renal,1180 nM
same,TGI,ACHN renal,2560 nM
same,GI50,T-47D breast,1800 nM
same,TGI,T-47D breast,5930 nM
same,GI50,K-562 leukemia,797 nM
same,TGI,K-562 leukemia,6280 nM
same,GI50,786-0 renal,1790 nM
same,TGI,786-0 renal,3580 nM
same,GI50,MOLT-4 leukemia,313 nM
same,TGI,MOLT-4 leukemia,1050 nM
same,GI50,SK-OV-3 ovarian,4080 nM
same,TGI,SK-OV-3 ovarian,16200 nM
same,GI50,HOP-62 NSCLC,2230 nM
same,TGI,HOP-62 NSCLC,4450 nM
same,GI50,SK-MEL-2 melanoma,2060 nM
same,TGI,SK-MEL-2 melanoma,5030 nM
same,GI50,NCI-H23 lung,1680 nM
same,TGI,NCI-H23 lung,3630 nM
same,GI50,HCT-116 colon,1100 nM
same,TGI,HCT-116 colon,2570 nM
same,GI50,OVCAR-3 ovarian,1700 nM
same,TGI,OVCAR-3 ovarian,3330 nM
same,GI50,CAKI-1 renal,2050 nM
same,TGI,CAKI-1 renal,5580 nM
same,GI50,NCI/ADR-RES ovarian,2030 nM
same,TGI,NCI/ADR-RES ovarian,5300 nM
same,GI50,LOX IMVI melanoma,1470 nM
same,TGI,LOX IMVI melanoma,2810 nM
